pIC50: −log10 of the molar value. The source made the active and inactive calls. The rule behind the calls is not given here.
Tests used:
[1] = biological target: T1, Protein cereblon/Bromodomain-containing protein 4 (Homo sapiens, UniProt O60885+Q96SW2); test: Protac activity at CRBN/BRD4 in human 22Rv1 cells assessed as down regulation of MYC gene expression at 20 to 100 nM measured after 36 hrs by RT-qPCR analysis; type: cell-based; conditions: dose 20-100 nM
[2] = biological target: T2, Protein cereblon/Serine/threonine-protein kinase PLK1 (Homo sapiens, UniProt P53350+Q96SW2); test: Protac activity at CRBN/PLK1 in human HeLa cells assessed as PLK1 degradation at 10 nM measured after 36 hrs by Western blot analysis; type: cell-based
Target sequence in this assay (P53350 2-603 limits assumed): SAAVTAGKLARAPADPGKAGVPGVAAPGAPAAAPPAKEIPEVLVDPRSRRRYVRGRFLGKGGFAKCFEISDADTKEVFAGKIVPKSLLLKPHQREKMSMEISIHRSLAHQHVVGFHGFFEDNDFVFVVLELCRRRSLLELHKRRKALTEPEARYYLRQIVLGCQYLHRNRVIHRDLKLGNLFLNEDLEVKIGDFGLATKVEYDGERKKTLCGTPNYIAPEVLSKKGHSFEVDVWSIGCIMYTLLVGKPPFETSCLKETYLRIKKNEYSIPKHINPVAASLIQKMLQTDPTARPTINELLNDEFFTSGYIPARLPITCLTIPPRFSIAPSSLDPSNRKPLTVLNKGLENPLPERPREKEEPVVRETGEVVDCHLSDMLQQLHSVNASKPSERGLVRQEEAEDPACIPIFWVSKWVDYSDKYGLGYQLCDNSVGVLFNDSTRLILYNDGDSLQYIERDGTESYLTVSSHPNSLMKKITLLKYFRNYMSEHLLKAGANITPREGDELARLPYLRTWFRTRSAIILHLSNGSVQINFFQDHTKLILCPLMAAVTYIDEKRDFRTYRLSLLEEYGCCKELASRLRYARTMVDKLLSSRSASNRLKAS
Target sequence in this assay (Q96SW2 whole entry partner): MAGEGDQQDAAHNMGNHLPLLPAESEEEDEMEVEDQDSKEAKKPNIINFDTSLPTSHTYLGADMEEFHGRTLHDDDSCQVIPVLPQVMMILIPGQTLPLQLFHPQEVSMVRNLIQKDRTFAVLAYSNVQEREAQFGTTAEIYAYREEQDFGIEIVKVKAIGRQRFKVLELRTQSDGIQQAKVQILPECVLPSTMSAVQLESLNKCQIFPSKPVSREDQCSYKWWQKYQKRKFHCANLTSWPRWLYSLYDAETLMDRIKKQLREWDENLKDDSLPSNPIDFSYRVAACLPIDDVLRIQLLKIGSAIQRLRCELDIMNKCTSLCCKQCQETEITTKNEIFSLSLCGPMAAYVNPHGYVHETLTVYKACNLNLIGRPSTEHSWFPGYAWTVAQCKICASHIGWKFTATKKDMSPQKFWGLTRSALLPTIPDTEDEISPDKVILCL

CWR22R [3] = test: Antiproliferative activity against human 22Rv1 cells assessed as reduction in cell viability up to 100000 nM incubated for 24 hrs prior to compound washout measured after 1 week by crystal violet staining based assay; type: functional
[4] = biological target: T3, Protein cereblon/Bromodomain-containing protein 3 (Homo sapiens, UniProt Q15059+Q96SW2); test: Protac activity at CRBN/BRD3 in human 22Rv1 cells assessed as BRD3 degradation measured after 36 hrs by Western blot analysis relative to control; type: cell-based
Target sequence in this assay (Q15059 2-726 limits assumed): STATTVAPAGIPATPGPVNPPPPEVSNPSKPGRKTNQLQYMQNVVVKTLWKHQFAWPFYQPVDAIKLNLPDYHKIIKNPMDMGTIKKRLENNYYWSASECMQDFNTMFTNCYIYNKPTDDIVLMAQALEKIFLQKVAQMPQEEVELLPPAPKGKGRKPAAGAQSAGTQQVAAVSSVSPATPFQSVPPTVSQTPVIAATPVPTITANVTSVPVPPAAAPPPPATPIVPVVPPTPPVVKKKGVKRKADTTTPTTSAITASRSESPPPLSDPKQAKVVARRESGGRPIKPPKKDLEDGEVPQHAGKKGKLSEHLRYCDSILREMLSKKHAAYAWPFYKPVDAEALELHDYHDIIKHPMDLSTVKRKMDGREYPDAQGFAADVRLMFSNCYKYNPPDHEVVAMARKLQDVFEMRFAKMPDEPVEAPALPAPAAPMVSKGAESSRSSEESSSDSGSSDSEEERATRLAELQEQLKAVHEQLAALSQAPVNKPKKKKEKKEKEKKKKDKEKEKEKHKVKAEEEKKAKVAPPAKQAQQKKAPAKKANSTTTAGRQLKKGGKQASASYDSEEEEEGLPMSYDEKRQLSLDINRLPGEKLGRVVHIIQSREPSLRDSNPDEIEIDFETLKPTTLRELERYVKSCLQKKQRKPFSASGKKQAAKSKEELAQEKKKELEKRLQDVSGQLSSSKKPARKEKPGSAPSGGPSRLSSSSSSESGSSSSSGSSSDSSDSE
Target sequence in this assay (Q96SW2 whole entry partner): as the sequence (Q96SW2 whole entry partner) above

[5] = biological target: T2, Protein cereblon/Serine/threonine-protein kinase PLK1; test: Protac activity at CRBN/PLK1 in human 22Rv1 cells assessed as PLK1 degradation at 50 nM measured after 24 hrs by Western blot analysis; type: cell-based
Target sequence in this assay (P53350 2-603 limits assumed): as the sequence (P53350 2-603 limits assumed) above
Target sequence in this assay (Q96SW2 whole entry partner): as the sequence (Q96SW2 whole entry partner) above

[6] = biological target: T1, Protein cereblon/Bromodomain-containing protein 4; test: Protac activity at CRBN/BRD4 in human HeLa cells assessed as BRD4 degradation at 500 nM measured after 12 hrs by Western blot analysis; type: cell-based
[7] = biological target: T2, Protein cereblon/Serine/threonine-protein kinase PLK1; test: Protac activity at CRBN/PLK1 in human HeLa cells assessed as PLK1 degradation at 10 to 500 nM measured after 36 hrs by Western blot analysis; type: cell-based; conditions: dose 10-500 nM
Target sequence in this assay (P53350 2-603 limits assumed): as the sequence (P53350 2-603 limits assumed) above
Target sequence in this assay (Q96SW2 whole entry partner): as the sequence (Q96SW2 whole entry partner) above

[8] = biological target: T2, Protein cereblon/Serine/threonine-protein kinase PLK1; test: Protac activity at CRBN/PLK1 in human HeLa cells assessed as PLK1 degradation at 500 nM measured after 12 hrs by Western blot analysis; type: cell-based
Target sequence in this assay (P53350 2-603 limits assumed): as the sequence (P53350 2-603 limits assumed) above
Target sequence in this assay (Q96SW2 whole entry partner): as the sequence (Q96SW2 whole entry partner) above

[9] = biological target: T4, Protein cereblon/Bromodomain-containing protein 2 (Homo sapiens, UniProt P25440+Q96SW2); test: Protac activity at CRBN/BRD2 in human HeLa cells assessed as BRD2 degradation at 3 nM measured after 36 hrs by Western blot analysis; type: cell-based
Target sequence in this assay (P25440 whole entry, looked up): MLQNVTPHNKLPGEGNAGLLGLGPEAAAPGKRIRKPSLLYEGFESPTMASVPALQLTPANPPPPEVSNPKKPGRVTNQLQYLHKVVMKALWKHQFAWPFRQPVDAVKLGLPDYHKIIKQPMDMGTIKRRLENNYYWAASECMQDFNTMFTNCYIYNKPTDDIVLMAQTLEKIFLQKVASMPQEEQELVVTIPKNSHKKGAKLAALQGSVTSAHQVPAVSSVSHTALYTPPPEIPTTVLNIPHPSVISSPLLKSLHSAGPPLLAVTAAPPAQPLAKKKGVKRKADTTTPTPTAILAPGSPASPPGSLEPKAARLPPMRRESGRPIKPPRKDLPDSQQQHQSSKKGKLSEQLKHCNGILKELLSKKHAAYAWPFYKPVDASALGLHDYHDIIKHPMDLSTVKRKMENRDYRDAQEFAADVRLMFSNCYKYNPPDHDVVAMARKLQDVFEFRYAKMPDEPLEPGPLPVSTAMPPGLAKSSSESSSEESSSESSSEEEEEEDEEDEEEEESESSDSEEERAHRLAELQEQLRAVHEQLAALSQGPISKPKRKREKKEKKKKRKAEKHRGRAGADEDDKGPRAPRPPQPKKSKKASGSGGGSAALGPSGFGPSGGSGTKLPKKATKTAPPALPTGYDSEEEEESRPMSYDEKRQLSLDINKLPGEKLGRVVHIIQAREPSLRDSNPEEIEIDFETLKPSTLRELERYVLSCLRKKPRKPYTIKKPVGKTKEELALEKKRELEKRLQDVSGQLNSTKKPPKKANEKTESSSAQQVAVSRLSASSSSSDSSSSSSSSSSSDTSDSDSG
Target sequence in this assay (Q96SW2 whole entry, looked up): as the sequence (Q96SW2 whole entry partner) above

MDA-MB-231 = test: Cytotoxicity against human MDA-MB-231 cells assessed as reduction in cell viability measured after 3 days by CCK-8 assay; type: functional, cell-based; conditions: MDA-MB-231, 72 h
[10] = biological target: T1, Protein cereblon/Bromodomain-containing protein 4; test: Protac activity at CRBN/BRD4 in human 22Rv1 cells assessed as BRD4 degradation measured after 36 hrs by Western blot analysis relative to control; type: cell-based
[11] = biological target: T1, Protein cereblon/Bromodomain-containing protein 4; test: Protac activity at CRBN/BRD4 in human HeLa cells assessed as BRD4 degradation at 3 nM measured after 36 hrs by Western blot analysis; type: cell-based
[12] = biological target: T4, Protein cereblon/Bromodomain-containing protein 2; test: Protac activity at CRBN/BRD2 in human 22Rv1 cells assessed as BRD2 degradation measured after 36 hrs by Western blot analysis relative to control; type: cell-based
Target sequence in this assay (P25440 whole entry, looked up): as the sequence (P25440 whole entry, looked up) above
Target sequence in this assay (Q96SW2 whole entry, looked up): as the sequence (Q96SW2 whole entry partner) above

[13] = biological target: T2, Protein cereblon/Serine/threonine-protein kinase PLK1; test: Protac activity at CRBN/PLK1 in human 22Rv1 cells assessed as PLK1 degradation measured after 36 hrs by Western blot analysis; type: cell-based
[14] = biological target: T1, Protein cereblon/Bromodomain-containing protein 4; test: Protac activity at CRBN/BRD4 in human HeLa cells assessed as BRD4 degradation at 20 nM measured after 24 hrs by Western blot analysis; type: cell-based
[15] = biological target: T1, Protein cereblon/Bromodomain-containing protein 4; test: Protac activity at CRBN/BRD4 in human MDA-MB-231 cells assessed as BRD4 degradation at 10 nM measured after 36 hrs by Western blot analysis; type: cell-based
[16] = biological target: T1, Protein cereblon/Bromodomain-containing protein 4; test: Protac activity at CRBN/BRD4 in human 22Rv1 cells assessed as BRD4 degradation measured after 36 hrs by Western blot analysis; type: cell-based
[17] = biological target: T2, Protein cereblon/Serine/threonine-protein kinase PLK1; test: Protac activity at CRBN/PLK1 in human HeLa cells assessed as PLK1 degradation measured after 36 hrs by Western blot analysis; type: cell-based
[18] = biological target: T3, Protein cereblon/Bromodomain-containing protein 3; test: Protac activity at CRBN/BRD3 in human HeLa cells assessed as BRD3 degradation at 3 nM measured after 36 hrs by Western blot analysis; type: cell-based
Target sequence in this assay (Q15059 2-726 limits assumed): as the sequence (Q15059 2-726 limits assumed) above
Target sequence in this assay (Q96SW2 whole entry partner): as the sequence (Q96SW2 whole entry partner) above

K562 = test: Cytotoxicity against human K562 cells assessed as reduction in cell viability measured after 3 days by CCK-8 assay; type: functional, cell-based; conditions: K562, 72 h
[19] = biological target: T2, Protein cereblon/Serine/threonine-protein kinase PLK1; test: Protac activity at CRBN/PLK1 in human 22Rv1 cells assessed as PLK1 degradation at 10 to 500 nM measured after 36 hrs by Western blot analysis; type: cell-based; conditions: dose 10-500 nM
Target sequence in this assay (P53350 2-603 limits assumed): as the sequence (P53350 2-603 limits assumed) above
Target sequence in this assay (Q96SW2 whole entry partner): as the sequence (Q96SW2 whole entry partner) above

CWR22R [20] = test: Down regulation of XIAP mRNA expression in human 22Rv1 cells at 20 to 100 nM measured after 36 hrs by RT-qPCR analysis; type: functional, cell-based; conditions: dose 20-100 nM
[21] = biological target: T1, Protein cereblon/Bromodomain-containing protein 4; test: Protac activity at CRBN/BRD4 in human HeLa cells assessed as BRD4 degradation at 10 nM measured after 36 hrs by Western blot analysis; type: cell-based
[22] = biological target: T1, Protein cereblon/Bromodomain-containing protein 4; test: Protac activity at CRBN/BRD4 in human K562 cells assessed as BRD4 degradation at 10 nM measured after 36 hrs by Western blot analysis; type: cell-based
[23] = biological target: T4, Protein cereblon/Bromodomain-containing protein 2; test: Protac activity at CRBN/BRD2 in human HeLa cells assessed as BRD2 degradation measured after 36 hrs by Western blot analysis; type: cell-based
Target sequence in this assay (P25440 whole entry): as the sequence (P25440 whole entry, looked up) above
Target sequence in this assay (Q96SW2 whole entry): as the sequence (Q96SW2 whole entry partner) above

CWR22R [24] = test: Effect on P21 mRNA expression in human 22Rv1 cells at 20 to 100 nM measured after 36 hrs by RT-qPCR analysis; type: functional, cell-based; conditions: dose 20-100 nM
[25] = biological target: T2, Protein cereblon/Serine/threonine-protein kinase PLK1; test: Protac activity at CRBN/PLK1 in human HeLa cells assessed as PLK1 degradation at 200 nM measured after 24 hrs by Western blot analysis; type: cell-based
Target sequence in this assay (P53350 2-603 limits assumed): as the sequence (P53350 2-603 limits assumed) above
Target sequence in this assay (Q96SW2 whole entry partner): as the sequence (Q96SW2 whole entry partner) above

[26] = biological target: T4, Protein cereblon/Bromodomain-containing protein 2; test: Protac activity at CRBN/BRD2 in human 22Rv1 cells assessed as BRD2 degradation measured after 36 hrs by Western blot analysis; type: cell-based
Target sequence in this assay (P25440 whole entry): as the sequence (P25440 whole entry, looked up) above
Target sequence in this assay (Q96SW2 whole entry): as the sequence (Q96SW2 whole entry partner) above

CWR22R [27] = test: Cytotoxicity against human 22Rv1 cells assessed as reduction in cell viability measured after 3 days by CCK-8 assay; type: functional, cell-based; conditions: 22Rv1, 72 h
[28] = biological target: T2, Protein cereblon/Serine/threonine-protein kinase PLK1; test: Protac activity at CRBN/PLK1 in human K562 cells assessed as PLK1 degradation at 10 nM measured after 36 hrs by Western blot analysis; type: cell-based
[29] = biological target: T3, Protein cereblon/Bromodomain-containing protein 3; test: Protac activity at CRBN/BRD3 in human 22Rv1 cells assessed as BRD3 degradation measured after 36 hrs by Western blot analysis; type: cell-based
[30] = biological target: T2, Protein cereblon/Serine/threonine-protein kinase PLK1; test: Protac activity at CRBN/PLK1 in human HeLa cells assessed as PLK1 degradation at 500 nM measured after 36 hrs by Western blot analysis; type: cell-based
[31] = biological target: T3, Protein cereblon/Bromodomain-containing protein 3; test: Protac activity at CRBN/BRD3 in human HeLa cells assessed as BRD3 degradation measured after 36 hrs by Western blot analysis; type: cell-based
[32] = biological target: T2, Protein cereblon/Serine/threonine-protein kinase PLK1; test: Protac activity at CRBN/PLK1 in human 22Rv1 cells assessed as PLK1 degradation measured after 36 hrs by Western blot analysis relative to control; type: cell-based
[33] = biological target: T4, Protein cereblon/Bromodomain-containing protein 2; test: Protac activity at CRBN/BRD2 in human HeLa cells assessed as BRD2 degradation measured after 36 hrs by Western blot analysis relative to control; type: cell-based
Target sequence in this assay (P25440 whole entry, looked up): as the sequence (P25440 whole entry, looked up) above
Target sequence in this assay (Q96SW2 whole entry, looked up): as the sequence (Q96SW2 whole entry partner) above

HeLa = test: Cytotoxicity against human HeLa cells assessed as reduction in cell viability measured after 3 days by CCK-8 assay; type: functional, cell-based; conditions: 72 h
[34] = biological target: T2, Protein cereblon/Serine/threonine-protein kinase PLK1; test: Protac activity at CRBN/PLK1 in human 22Rv1 cells assessed as PLK1 degradation at 50 nM measured after 36 hrs by Western blot analysis; type: cell-based
[35] = biological target: T2, Protein cereblon/Serine/threonine-protein kinase PLK1; test: Protac activity at CRBN/PLK1 in human HeLa cells assessed as PLK1 degradation measured after 36 hrs by Western blot analysis relative to control; type: cell-based
[36] = biological target: T3, Protein cereblon/Bromodomain-containing protein 3; test: Protac activity at CRBN/BRD3 in human HeLa cells assessed as BRD3 degradation measured after 36 hrs by Western blot analysis relative to control; type: cell-based
Target sequence in this assay (Q15059 2-726 limits assumed): as the sequence (Q15059 2-726 limits assumed) above
Target sequence in this assay (Q96SW2 whole entry partner): as the sequence (Q96SW2 whole entry partner) above

[37] = biological target: T1, Protein cereblon/Bromodomain-containing protein 4; test: Protac activity at CRBN/BRD4 in human HeLa cells assessed as BRD4 degradation measured after 36 hrs by Western blot analysis; type: cell-based
[38] = biological target: T1, Protein cereblon/Bromodomain-containing protein 4; test: Protac activity at CRBN/BRD4 in human HeLa cells assessed as BRD4 degradation measured after 36 hrs by Western blot analysis relative to control; type: cell-based
CWR22R [39] = test: Down regulation of PRDM1 mRNA expression in human 22Rv1 cells at 20 to 100 nM measured after 36 hrs by RT-qPCR analysis; type: functional, cell-based; conditions: dose 20-100 nM
[40] = biological target: T2, Protein cereblon/Serine/threonine-protein kinase PLK1; test: Protac activity at CRBN/PLK1 in human 22Rv1 cells assessed as PLK1 degradation at 2 uM measured after 12 to 24 hrs by Western blot analysis; type: cell-based; conditions: time 12-24 hrs
[41] = biological target: T1, Protein cereblon/Bromodomain-containing protein 4; test: Protac activity at CRBN/BRD4 in human 22Rv1 cells assessed as BRD4 degradation at 50 nM measured after 2 hrs by Western blot analysis; type: cell-based
[42] = biological target: T1, Protein cereblon/Bromodomain-containing protein 4; test: Protac activity at CRBN/BRD4 in human 22Rv1 cells assessed as BRD4 degradation at 50 nM measured after 4 hrs by Western blot analysis; type: cell-based
[43] = biological target: T2, Protein cereblon/Serine/threonine-protein kinase PLK1; test: Protac activity at CRBN/PLK1 in human MDA-MB-231 cells assessed as PLK1 degradation at 10 nM measured after 36 hrs by Western blot analysis; type: cell-based
CWR22R [44] = test: Down regulation of Bcl-2 mRNA expression in human 22Rv1 cells at 20 to 100 nM measured after 36 hrs by RT-qPCR analysis; type: functional, cell-based; conditions: dose 20-100 nM

T1 sequence (Q96SW2 whole entry, looked up, other chains not shown): as the sequence (Q96SW2 whole entry partner) above

Activity [2]: Active
Activity [4]: 89.9%
Activity [6]: 95%
Activity [8]: 28%
Activity [9]: Active
Activity [10]: 96.5%
Activity [11]: Active
Activity [12]: 91.5%
DC50 [13]: 4.68 nM
Activity [15]: Active
DC50 [16]: 1.56 nM
DC50 [17]: 1.64 nM
Activity [18]: Active
Activity [21]: Active
Activity [22]: Active
DC50 [23]: 6.45 nM
Activity [25]: Active; Moderate Effect Observed
DC50 [26]: 1.63 nM
Activity [28]: Active
DC50 [29]: 9.45 nM
Activity [30]: 92%
DC50 [31]: 1.74 nM
Activity [32]: 78%
Activity [33]: 82.8%
Activity [34]: Active; Profound Degradation Observed
Activity [35]: 78.6%
Activity [36]: 93.3%
DC50 [37]: 1.03 nM
Activity [38]: 93.4%
Activity [40]: Active
Activity [43]: Active
SMILES: CC[C@@H]1C(=O)N(C)c2cnc(Nc3ccc(C(=O)NC4CCN(CCCCCCCC(=O)Nc5cccc6c5C(=O)N(C5CCC(=O)NC5=O)C6=O)CC4)cc3OC)nc2N1C1CCCC1 (some centres not stated)
Activity [1]: Active; Nearly Complete Down Regulation Observed At 20 Nm
Activity (CWR22R [3]): Active; Antiproliferative Effect Was Enhanced Even After 1 Week
Activity [5]: Not active; No Significant Effect Observed
Activity [7]: Active; Higher Degradation Observed At 36 Hrs
pIC50 (MDA-MB-231): 6.56
Activity [14]: Active; Demonstrated Most Potent Efficacy
pIC50 (K562): 7.28
Activity [19]: Active; Higher Degradation Observed At 36 Hrs
Activity (CWR22R [20]): Active
Activity (CWR22R [24]): inactive
pIC50 (CWR22R [27]): 7.35
pIC50 (HeLa): 7.36
Activity (CWR22R [39]): Active
Activity [41]: Active; Effectively Reduced The Protein Level
Activity [42]: Active; Near-Complete Depletion Of Brd4 Observed
Activity (CWR22R [44]): Active

From ChEMBL document CHEMBL6114972, “Proteolysis targeting chimera of BI-2536 induces potent dual degradation of PLK1 and BET proteins” (Bioorg Med Chem, 2025)
